Converted amounts (≈) assume the structure as drawn.
How the values were obtained:
[1] = tested on: P388 mouse leukemia cells; assay: P338 (P388) Mouse Leukemia Cell Assay, in vitro; type: cell-based; conditions: 48 hours
Protocol: (§1) The following assay methods are utilized to evaluate the antitumor activity of the alkaloid compounds of the invention.
P338 Mouse Leukemia Cell Assay
(§2) Maintenance of Cell Lines
P338 mouse leukemis cells are grown in Dulbecco MEM medium with 10% horse serum, 4 mM glutamine, and 20 ug/ml gentamycin (Biologos, Inc.). Cells are incubated in humidified air containing 10% CO2 at 37° C. and subcultured 2 time per week.
1. Add compound to each well of a 24-well plate to tube and allow solvent to evaporate to dryness.
2. Add 2 ml (1.2×10^5) cells to each well or tube and mix.
3. Incubate in 10% CO2 at 37° C. for 48 hours.
4. Read plates with an inverted microscope, scoring activity from 1+ to 4+ as follows: ND (not detectable), 90% 1+, 75-90% 2+, 50-74% 3+, 25-49% 4+, 25% of control growth.
Alternatively, the activity may be designated as IC50 concentration which is the concentration of compound required to inhibit 50% of cell growth on the plate.
Cell counts are performed on each tube and results are reported as percent of control.

Mouse P388 = Mouse P388 in vivo antitumor activity (T/C); conditions: Mouse P388, at 5 mg/kg
[2] = tested on: HCT-8 human colon tumor cells; assay: Human Tumor Cell Line Assay, HCT-8; type: cell-based; conditions: 120 hours, read-out: HCT-8 activity score (cell density vs control)
Protocol: as §1
(§3) Human Tumor Cell Line Assay
as §2
(§4) HCT-8 human colon tumor cells are grown in RPMI 1640 medium. A-549 human lung carcinoma cells are grown in Dublecco MEM medium. T-47D human breast cancer cells are cultured in Eagles MEM medium. All media (Biologos, Inc.) are supplemented with 10% fetal bovine serum and contain 50 ug/ml gentamicin. All humand tumor cell lines are incubated in humidified air containing 5% CO2 at 37° C. and subcultured once a week. The seeding levels are 200,000 T-47D cells, 60,000 HCT-8 cells and 300,000 A-549 cells per T-25 Flask. Vinblastine is used as a positive control.
(§5) 2. Incubate is a CO2 incubator for 48 hours.
(§6) 3. Add compound to each well and incubate for an additional 120 hours.
(§7) 4. Discard medium and stain with methylene blue (HCT-8) or crystal violet (A-549 and T-47D).
(§8) 5. Compare cell density of compound-treated with that of the control (no compound added) as follows: ND (not detectable), 90% 1+, 75-90% 2+, 50-74% 3+, 25-49% 4+, 25% of control growth.
(§9) The positive control is Vinblastine in aqueous solution at the following concentrations: […]

[3] = tested on: A-549 human lung carcinoma cells; assay: Human Tumor Cell Line Assay, A-549; type: cell-based; conditions: 120 hours, read-out: A-549 activity score (cell density vs control)
Protocol: as §1, §3, §2, §4, §5, §6, §7, §8, §9

[4] = tested on: T-47D human breast cancer cells; assay: Human Tumor Cell Line Assay, T-47D; type: cell-based; conditions: T47D, 120 hours, read-out: T-47D activity score (cell density vs control)
Protocol: as §1, §3, §2, §4, §5, §6, §7, §8, §9

[5] = Immunomodulatory activity, two-way mixed lymphocyte reaction assay (% LCV); type: cell-based, murine; conditions: mouse, lymphocytes
Text: This example concerns immunomodulatory activity of compounds of the invention on murine derived, two-way mixed lymphocyte reaction assay.

SMILES	IC50 [1] [µg/mL]	in vivo T/C (Mouse P388) [%]	activity at 0.01 µg/mL ([2]; 0.01 ug/ml) [%]	activity at 0.1 µg/mL ([2]; 0.1 ug/ml) [%]	activity at 1 µg/mL ([2]; 1 ug/ml) [%]	activity at 2 µg/mL ([2]; 2 ug/ml) [%]	activity at 0.01 µg/mL ([3]; A549, 0.01 ug/ml) [%]	activity at 0.1 µg/mL ([3]; A549, 0.1 ug/ml) [%]	activity at 1 µg/mL ([3]; A549, 1 ug/ml) [%]	activity at 2 µg/mL ([3]; A549, 2 ug/ml) [%]	activity at 0.01 µg/mL ([4]; 0.01 ug/ml) [%]	activity at 0.1 µg/mL ([4]; 0.1 ug/ml) [%]	activity at 1 µg/mL ([4]; 1 ug/ml) [%]	activity at 2 µg/mL ([4]; 2 ug/ml) [%]	viability ([5]; 0.01 ug/well) [%]	viability ([5]; 0.1 ug/well) [%]	viability ([5]; 1.0 ug/well) [%]	viability ([5]; 10.0 ug/well) [%]
CN(C)CCc1c2ncsc2c2c3c(c4ccccc4nc13)C=CN2C [Dercitin 1, dercitin 1]	0.05 (≈ 0.139 µM)	170	> 90	< 25	< 25	< 25	> 90	< 25	< 25	< 25	> 90	< 25	< 25	< 25	56	48	46	67
CN(C)CCc1c2c3c(c4scnc14)N(C)CCC3c1ccccc1N2 (stereo not shown) [Tetrahydrodercitin 1, tetrahydrodercitin 1]	–	–	–	–	–	–	–	–	–	–	–	–	–	–	100	91	49	41

Source: patent US4868191A, “Alkaloid compounds, and pharmaceutical compositions containing them” (Harbor Branch Oceanographic Institution, Inc., priority 1988, dated 1989)
